Test results from the NIST ThermoML archive (doi:10.1016/j.jct.2018.02.022).

Assay: xn = mol fraction of the nth substance listed
Conditions: 92.3 kPa, Liquid; for viscosity: Concentric cylinders viscometry; for speed of sound: Frequency=3 MHz, Single path-length method; for mass density: Vibrating tube method

OCC(O)CO [glycerol] + O
Conditions	mass density, 293.15 K [kg/m3]	mass density, 298.15 K [kg/m3]	speed of sound, 293.15 K [m/s]	speed of sound, 298.15 K [m/s]	viscosity, 293.15 K [mPa·s]	viscosity, 298.15 K [mPa·s]
x1 = 0.011	1010.85	1009.54	1505.6	1518.5	–	–
x1 = 0.021	1021.71	1020.28	1526.4	1538	–	–
x1 = 0.0302	1031.17	1029.64	1544.8	1555.4	–	–
x1 = 0.0398	1040.58	1038.94	1563.4	1572.8	–	–
x1 = 0.0546	1054.09	1052.3	1590.1	1598	–	–
x1 = 0.0651	1062.84	1060.94	1608.2	1615	–	–
x1 = 0.0721	1068.61	1066.65	1619.8	1625.8	–	–
x1 = 0.0793	1073.97	1071.95	1630.9	1636.2	–	–
x1 = 0.0898	1081.8	1079.69	1646.9	1651.3	–	–
x1 = 0.0998	1088.82	1086.64	1661.3	1664.9	3.277	2.631
x1 = 0.1198	1101.67	1099.36	1687.5	1689.5	–	–
x1 = 0.1549	1121.66	1119.16	1727.7	1727.3	5.662	4.416
x1 = 0.2024	1143.7	1141.01	1770.2	1767.4	–	–
x1 = 0.2534	1162.81	1159.99	1804.7	1800	13.67	10.4
x1 = 0.2959	1176	1173.1	1826.9	1821	19.73	14.91
x1 = 0.3504	1190.05	1187.09	1846.7	1841.6	30.2	22.91
x1 = 0.4006	1200.88	1197.86	1863.9	1856.1	45.08	33.73
x1 = 0.4477	1209.47	1206.42	1874.9	1866.5	63.42	46.86
x1 = 0.4983	1217.48	1214.4	1884.4	1875.4	90.21	65.72
x1 = 0.5471	1224.33	1221.23	1891.7	1882.4	124.25	89.21
x1 = 0.6046	1231.03	1227.93	1898.3	1888.6	182.07	126.31
x1 = 0.6469	1235.49	1232.4	1902.4	1892.3	234.23	163.54
x1 = 0.7006	1240.52	1237.44	1906.8	1896.3	322.03	220.14
x1 = 0.7465	1244.44	1241.37	1910.2	1899.4	419.77	283.91
x1 = 0.7942	1248.13	1245.06	1913.5	1902.3	535.66	358.24
x1 = 0.8497	1251.95	1248.81	1916.8	1905.2	705.87	463.79
x1 = 0.8993	1254.99	1251.84	1919.1	1907	897.16	584.38
x1 = 0.9196	1256.26	1253.1	1920.6	1908.2	–	–
x1 = 0.9322	1256.97	1253.82	1921.3	1908.7	–	–
x1 = 0.9462	1257.78	1254.68	1922.1	1909.8	1125.1	725.78
x1 = 0.9562	1258.3	1255.2	1922.6	1909.8	–	–
x1 = 0.9855	1259.96	1256.87	1924.3	1911	–	–
x1 = 1	1260.73	1257.65	1925.5	1911.9	1408.4	900.44
